System: yeast genes (expressed mRNA)
Test: DNA chip measurement of expressed mRNA of yeast genes after culture with a toxic chemical substance
Assay type: cell-based, Saccharomyces cerevisiae S288C
How it was run: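 Fluorescence ratio, treated over untreated, read by chip scanner; ratio of two or more counted significant. Cells: S288C yeast, YPD, 25° C, chemical added at log phase for 2 h at growth-inhibiting, sublethal level. Cy3/Cy5-labeled cDNA from oligo-dT-purified mRNA.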

N#Cc1c(Cl)c(Cl)c(Cl)c(C#N)c1Cl [(9), 2,4,5,6-Tetrachloro-1,3-benzenedicarbonitrile]
The level of expressed mRNA in the presence of chemical substance/The level of expressed mRNA in the absence of chemical substance (yeast gene YJL108C, cultured two hours with substance): 0.3
The level of expressed mRNA in the presence of chemical substance/The level of expressed mRNA in the absence of chemical substance (yeast gene YJL144W, cultured two hours with substance): 14.6
The level of expressed mRNA in the presence of chemical substance/The level of expressed mRNA in the absence of chemical substance (yeast gene YJL149W, cultured two hours with substance): 1.5
The level of expressed mRNA in the presence of chemical substance/The level of expressed mRNA in the absence of chemical substance (yeast gene YJL151C, cultured two hours with substance): 0.5
The level of expressed mRNA in the presence of chemical substance/The level of expressed mRNA in the absence of chemical substance (yeast gene YJL152W, cultured two hours with substance): 0.3
The level of expressed mRNA in the presence of chemical substance/The level of expressed mRNA in the absence of chemical substance (yeast gene YJL161W, cultured two hours with substance): 3.1
The level of expressed mRNA in the presence of chemical substance/The level of expressed mRNA in the absence of chemical substance (yeast gene YJL163C, cultured two hours with substance): 14.5
The level of expressed mRNA in the presence of chemical substance/The level of expressed mRNA in the absence of chemical substance (yeast gene YJL171C, cultured two hours with substance): 1.0
The level of expressed mRNA in the presence of chemical substance/The level of expressed mRNA in the absence of chemical substance (yeast gene YJL186W, cultured two hours with substance): 0.2
The level of expressed mRNA in the presence of chemical substance/The level of expressed mRNA in the absence of chemical substance (yeast gene YJR008W, cultured two hours with substance): 1.8
The level of expressed mRNA in the presence of chemical substance/The level of expressed mRNA in the absence of chemical substance (yeast gene YJR074W, cultured two hours with substance): 3.7
The level of expressed mRNA in the presence of chemical substance/The level of expressed mRNA in the absence of chemical substance (yeast gene YJR085C, cultured two hours with substance): 3.7
The level of expressed mRNA in the presence of chemical substance/The level of expressed mRNA in the absence of chemical substance (yeast gene YJR155W): 38.2
The level of expressed mRNA in the presence of chemical substance/The level of expressed mRNA in the absence of chemical substance (yeast gene YJR155W, cultured for two hours with substance): 38.2
The level of expressed mRNA in the presence of chemical substance/The level of expressed mRNA in the absence of chemical substance (yeast gene YKL071W, cultured two hours with substance): 162.2
The level of expressed mRNA in the presence of chemical substance/The level of expressed mRNA in the absence of chemical substance (yeast gene YKL086W, cultured two hours with substance): 8.2
The level of expressed mRNA in the presence of chemical substance/The level of expressed mRNA in the absence of chemical substance (yeast gene YKL107W, cultured two hours with substance): 28.2
The level of expressed mRNA in the presence of chemical substance/The level of expressed mRNA in the absence of chemical substance (yeast gene YKL151C, cultured two hours with substance): 3.3
The level of expressed mRNA in the presence of chemical substance/The level of expressed mRNA in the absence of chemical substance (yeast gene YKL153W, cultured two hours with substance): 0.8
The level of expressed mRNA in the presence of chemical substance/The level of expressed mRNA in the absence of chemical substance (yeast gene YKL195W, cultured two hours with substance): 3.6
The level of expressed mRNA in the presence of chemical substance/The level of expressed mRNA in the absence of chemical substance (yeast gene YKR091W, cultured two hours with substance): 1.0
The level of expressed mRNA in the presence of chemical substance/The level of expressed mRNA in the absence of chemical substance (yeast gene YLL055W (transport facilitation protein gene)): 19.1
The level of expressed mRNA in the presence of chemical substance/The level of expressed mRNA in the absence of chemical substance (yeast gene YLL056C, cultured two hours with substance): 58.8
The level of expressed mRNA in the presence of chemical substance/The level of expressed mRNA in the absence of chemical substance (yeast gene YLL060C (stress protein genes)): 13.0
The level of expressed mRNA in the presence of chemical substance/The level of expressed mRNA in the absence of chemical substance (yeast gene YLL062C, cultured two hours with substance): 14.9
The level of expressed mRNA in the presence of chemical substance/The level of expressed mRNA in the absence of chemical substance (yeast gene YLR031W, cultured two hours with substance): 0.9
The level of expressed mRNA in the presence of chemical substance/The level of expressed mRNA in the absence of chemical substance (yeast gene YLR054C, cultured two hours with substance): 2.7
The level of expressed mRNA in the presence of chemical substance/The level of expressed mRNA in the absence of chemical substance (yeast gene YLR149C, cultured two hours with substance): 6.2
The level of expressed mRNA in the presence of chemical substance/The level of expressed mRNA in the absence of chemical substance (yeast gene YLR152C, cultured two hours with substance): 0.6
The level of expressed mRNA in the presence of chemical substance/The level of expressed mRNA in the absence of chemical substance (yeast gene YLR194C, cultured two hours with substance): 0.9
The level of expressed mRNA in the presence of chemical substance/The level of expressed mRNA in the absence of chemical substance (yeast gene YLR204W, cultured two hours with the substance): 1.4
The level of expressed mRNA in the presence of chemical substance/The level of expressed mRNA in the absence of chemical substance (yeast gene YLR205C, cultured two hours with substance): 1.5
The level of expressed mRNA in the presence of chemical substance/The level of expressed mRNA in the absence of chemical substance (yeast gene YLR324W, cultured two hours with substance): 3.1
The level of expressed mRNA in the presence of chemical substance/The level of expressed mRNA in the absence of chemical substance (yeast gene YLR350W, cultured two hours with substance): 0.6
The level of expressed mRNA in the presence of chemical substance/The level of expressed mRNA in the absence of chemical substance (yeast gene YLR387C, cultured two hours with substance): 7.8
The level of expressed mRNA in the presence of chemical substance/The level of expressed mRNA in the absence of chemical substance (yeast gene YLR460C, cultured two hours with substance): 13.9
The level of expressed mRNA in the presence of chemical substance/The level of expressed mRNA in the absence of chemical substance (yeast gene YML117W, cultured two hours with substance): 1.0
The level of expressed mRNA in the presence of chemical substance/The level of expressed mRNA in the absence of chemical substance (yeast gene YMR009W, cultured two hours with substance): 3.4
The level of expressed mRNA in the presence of chemical substance/The level of expressed mRNA in the absence of chemical substance (yeast gene YMR067C, cultured two hours with substance): 4.0
The level of expressed mRNA in the presence of chemical substance/The level of expressed mRNA in the absence of chemical substance (yeast gene YMR090W, cultured two hours with substance): 16.7
The level of expressed mRNA in the presence of chemical substance/The level of expressed mRNA in the absence of chemical substance (yeast gene YMR097C, cultured two hours with substance): 2.1
The level of expressed mRNA in the presence of chemical substance/The level of expressed mRNA in the absence of chemical substance (yeast gene YMR102C, cultured two hours with substance): 1.7
The level of expressed mRNA in the presence of chemical substance/The level of expressed mRNA in the absence of chemical substance (yeast gene YMR107W, cultured two hours with substance): 6.0
The level of expressed mRNA in the presence of chemical substance/The level of expressed mRNA in the absence of chemical substance (yeast gene YMR140W, cultured two hours with substance): 1.8
The level of expressed mRNA in the presence of chemical substance/The level of expressed mRNA in the absence of chemical substance (yeast gene YMR180C, cultured two hours with substance): 1.8
The level of expressed mRNA in the presence of chemical substance/The level of expressed mRNA in the absence of chemical substance (yeast gene YMR184W, cultured two hours with substance): 2.1
The level of expressed mRNA in the presence of chemical substance/The level of expressed mRNA in the absence of chemical substance (yeast gene YMR191W, cultured two hours with substance): 2.2
The level of expressed mRNA in the presence of chemical substance/The level of expressed mRNA in the absence of chemical substance (yeast gene YMR195W, cultured two hours with substance): 0.2
The level of expressed mRNA in the presence of chemical substance/The level of expressed mRNA in the absence of chemical substance (yeast gene YMR295C, cultured two hours with substance): 1.0
The level of expressed mRNA in the presence of chemical substance/The level of expressed mRNA in the absence of chemical substance (yeast gene YMR315W, cultured two hours with substance): 2.4
